Experimental data: paper PMC8910920 (International Journal of Molecular Sciences, 2022)
Several values for one entry are separate records, joined by “and”; a condition that tells them apart may be missing. Identical values can stand only once.

Key:
[1] = target: T1, native TRPM8 channels from rat DRG neurons (Rattus norvegicus, UniProt Q8R455); experiment: Whole-cell voltage-clamp, menthol-activated currents in rat DRG neurons; format: cell-based
T1 construct: native TRPM8 channels from rat DRG neurons; endogenous in cells; host or cells: primary DRG neurons (L4-L6) from 6-8 weeks old Sprague-Dawley rats
Method: We also investigated the effect of RGM8-51 on native TRPM8 channels from rat DRG neurons. Whole-cell patch-clamp recordings from small size DRG neurons evidenced menthol (100 µM)-activated inward currents at a holding voltage of −80 mV (Figure 3A). As expected from results obtained in rTRPM8-expressing HEK293 cells, RGM8-51 (1 µM) inhibited menthol-activated currents.
Voltage-activated Na^+ and K^+ currents and TRPM8-mediated currents were recorded in DRG neurons isolated from 6-8 weeks old Sprague-Dawley rats, as previously described. Rats were sacrificed by cervical dislocation followed by decapitation and lumbar segments of the spinal column were removed and placed in a cold Ca^2+, Mg^2+-free Hank’s solution (Sigma-Aldrich, Madrid, Spain). The bone surrounding the spinal cord was removed and the right L4, L5 and L6 DRG were exposed and pulled out. After removing the roots, DRG were chopped in half and incubated for 30 min at 37°C in Dulbecco’s modified Eagle’s Medium-low glucose (DMEM; Sigma-Aldrich) containing 5 mg/mL collagenase XI (Sigma-Aldrich, Madrid, Spain), 100 U/mL penicillin (Sigma-Aldrich), and 0.1 mg/mL streptomycin (Sigma-Aldrich). Then, the cell suspension was washed with DMEM by centrifugation (300 G, 5 min at 4 °C), filtered through a 100 µm mesh to eliminate cell clumps and washed again by centrifugation. […]
Data were sampled at 10 kHz (EPC10 amplifier with PatchMaster 2.53 software, HEKA Electronics, Lambrecht, Germany) and low-pass filtered at 3 kHz for analysis (PatchMaster 2.53 and GraphPad Prism 6.0, Graphpad Software, San Diego, CA, USA). […] Cell capacitance was measured and used to estimate the current density (J, pA/pF).
Data analysis: For the whole-cell patch-clamp experiments, results are expressed as the percentage of remaining activation of the TRPM8 channel. This is calculated by normalizing the ratio (p2/p1) of testing conditions to the ratio (p2/p1) of the control condition. […]

[2] = system: serum proteins; experiment: Protein binding; format: in vitro ADME, human

T1 sequence (Q8R455 whole entry): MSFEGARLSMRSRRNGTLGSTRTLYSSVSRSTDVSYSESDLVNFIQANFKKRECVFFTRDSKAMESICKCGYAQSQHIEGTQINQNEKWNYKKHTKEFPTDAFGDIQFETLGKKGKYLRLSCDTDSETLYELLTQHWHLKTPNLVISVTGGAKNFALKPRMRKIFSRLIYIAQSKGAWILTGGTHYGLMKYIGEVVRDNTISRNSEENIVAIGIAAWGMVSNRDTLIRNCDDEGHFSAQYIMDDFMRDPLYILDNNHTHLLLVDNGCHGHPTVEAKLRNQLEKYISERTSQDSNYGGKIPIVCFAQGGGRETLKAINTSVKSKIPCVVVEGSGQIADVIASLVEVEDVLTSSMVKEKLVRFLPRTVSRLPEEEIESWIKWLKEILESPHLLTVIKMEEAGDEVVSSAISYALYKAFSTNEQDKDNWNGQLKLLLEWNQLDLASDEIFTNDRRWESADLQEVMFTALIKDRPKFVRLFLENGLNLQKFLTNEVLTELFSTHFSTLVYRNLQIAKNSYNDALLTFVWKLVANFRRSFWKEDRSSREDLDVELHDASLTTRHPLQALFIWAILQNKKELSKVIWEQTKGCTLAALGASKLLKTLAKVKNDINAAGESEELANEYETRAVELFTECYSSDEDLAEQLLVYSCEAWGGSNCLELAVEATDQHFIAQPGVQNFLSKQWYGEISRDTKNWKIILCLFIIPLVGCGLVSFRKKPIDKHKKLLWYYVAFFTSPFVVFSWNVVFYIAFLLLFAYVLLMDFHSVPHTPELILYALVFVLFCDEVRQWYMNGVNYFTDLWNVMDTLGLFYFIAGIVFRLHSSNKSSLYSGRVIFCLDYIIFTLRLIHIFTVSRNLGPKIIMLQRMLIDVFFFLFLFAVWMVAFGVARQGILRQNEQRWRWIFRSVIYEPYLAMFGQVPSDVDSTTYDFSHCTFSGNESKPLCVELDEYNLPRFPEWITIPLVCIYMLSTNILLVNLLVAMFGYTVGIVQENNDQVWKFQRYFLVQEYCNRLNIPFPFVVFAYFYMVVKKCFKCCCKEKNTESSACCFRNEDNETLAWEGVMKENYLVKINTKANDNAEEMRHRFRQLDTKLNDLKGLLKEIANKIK

Question: What does the source list for `C[C@@H]1C(=O)N(C[C@H](Cc2ccccc2)N(Cc2ccccc2)Cc2ccccc2)[C@]1(Cc1ccccc1)C(=O)OC(C)(C)C` [RGM8-51, 4(S)-Benzyl-3S-methyl-4-(tert-butoxy)carbonyl-1-[(2′S-dibenzylamino-3′-phenyl)prop-1′-yl]-2-oxoazetidine]?
Answer: peak current density of menthol-activated current after compound ([1]; 1 µM, menthol 100 µM, holding −80 mV): 0.51 ± 0.09 pA/pF; inhibition at 1 µM ([1]; DRG neuron, 1 µM, menthol 100 µM, holding −80 mV, n = 8 cells, read-out: Mean peak current inhibition of menthol-activated currents): 65 ± 4.67%; effect on baseline current at -80 mV ([1]; compound on its own): did not modify on its own the baseline current; Binding to proteins (%) [2]: 100% and 99–100%
